What is called IC50 is the concentration needed to halve the response being measured. Low values mean inhibition by little substance, high ones a need for much substance.

In the test the target is Integrin alpha-V/beta-3 (Homo sapiens, UniProt P05106+P06756). Nature of the test: Inhibition of adhesion of K562 cells expressing alphaVbeta3 integrin receptor to vitronectin. The format is cell-based.
Chain of Integrin alpha-V/beta-3 (P05106 27-788 limits assumed): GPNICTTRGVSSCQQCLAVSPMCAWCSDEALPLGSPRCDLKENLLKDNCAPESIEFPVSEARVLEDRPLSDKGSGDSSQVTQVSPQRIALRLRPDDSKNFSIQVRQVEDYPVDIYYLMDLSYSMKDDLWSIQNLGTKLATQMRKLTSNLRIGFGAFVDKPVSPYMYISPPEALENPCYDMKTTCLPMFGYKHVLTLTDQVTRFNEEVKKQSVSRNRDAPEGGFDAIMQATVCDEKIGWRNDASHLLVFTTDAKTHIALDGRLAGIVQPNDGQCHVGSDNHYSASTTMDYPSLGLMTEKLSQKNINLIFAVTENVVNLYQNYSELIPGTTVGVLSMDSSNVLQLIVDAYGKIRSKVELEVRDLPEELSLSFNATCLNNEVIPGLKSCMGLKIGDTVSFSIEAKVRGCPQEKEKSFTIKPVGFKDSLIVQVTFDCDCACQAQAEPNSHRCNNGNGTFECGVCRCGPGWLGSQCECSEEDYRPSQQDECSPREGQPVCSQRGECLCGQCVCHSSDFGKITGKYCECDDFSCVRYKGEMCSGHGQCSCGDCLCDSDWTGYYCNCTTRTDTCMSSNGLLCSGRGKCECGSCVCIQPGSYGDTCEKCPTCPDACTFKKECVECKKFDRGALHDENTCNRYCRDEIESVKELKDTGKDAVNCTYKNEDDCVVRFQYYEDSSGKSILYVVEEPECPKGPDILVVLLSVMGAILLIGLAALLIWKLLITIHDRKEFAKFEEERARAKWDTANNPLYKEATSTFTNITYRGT
Chain of Integrin alpha-V/beta-3 (P06756 31-889 limits assumed): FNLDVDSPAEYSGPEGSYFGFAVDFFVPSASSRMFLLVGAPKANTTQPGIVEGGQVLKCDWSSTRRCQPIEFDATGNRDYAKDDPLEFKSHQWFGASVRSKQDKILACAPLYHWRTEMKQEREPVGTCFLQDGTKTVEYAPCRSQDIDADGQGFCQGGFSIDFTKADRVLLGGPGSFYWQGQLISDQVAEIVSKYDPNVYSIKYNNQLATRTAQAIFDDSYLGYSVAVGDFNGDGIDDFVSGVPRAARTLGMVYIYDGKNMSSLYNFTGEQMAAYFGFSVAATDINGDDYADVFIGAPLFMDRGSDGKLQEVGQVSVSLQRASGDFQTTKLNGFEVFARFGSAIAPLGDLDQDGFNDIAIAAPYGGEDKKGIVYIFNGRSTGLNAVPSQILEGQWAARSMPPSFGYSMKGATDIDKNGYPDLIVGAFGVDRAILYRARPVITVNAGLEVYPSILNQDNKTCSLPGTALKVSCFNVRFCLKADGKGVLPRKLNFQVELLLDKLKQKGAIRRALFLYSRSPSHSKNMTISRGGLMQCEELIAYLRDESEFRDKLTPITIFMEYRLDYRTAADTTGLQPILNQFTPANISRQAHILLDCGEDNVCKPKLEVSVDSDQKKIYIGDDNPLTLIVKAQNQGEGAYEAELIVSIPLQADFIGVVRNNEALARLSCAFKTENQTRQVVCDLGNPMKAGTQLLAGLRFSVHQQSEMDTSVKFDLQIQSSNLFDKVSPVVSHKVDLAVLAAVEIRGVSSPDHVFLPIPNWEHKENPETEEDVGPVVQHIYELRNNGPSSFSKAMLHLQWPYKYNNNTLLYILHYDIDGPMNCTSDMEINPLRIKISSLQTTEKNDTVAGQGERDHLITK
Chain of Integrin alpha-V/beta-3 (P06756 891-1048 limits assumed): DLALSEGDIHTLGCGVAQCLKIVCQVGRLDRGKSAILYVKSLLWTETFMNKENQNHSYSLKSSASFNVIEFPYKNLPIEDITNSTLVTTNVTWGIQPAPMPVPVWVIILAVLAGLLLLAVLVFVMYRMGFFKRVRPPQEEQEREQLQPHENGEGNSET

`CSCC[C@H](NC(=O)CC[C@H]1NC(=O)[C@H](CC(=O)O)NC(=O)CNC(=O)[C@H](CCCN=C(N)N)NC(=O)[C@H](CCCCN)NC1=O)C(=O)N[C@@H](CC(=O)O)C(=O)N[C@@H](CC(=O)O)C(=O)N1CCC[C@H]1C(=O)NCC(=O)/N=C(\N)NCCC[C@H](N)C(=O)N[C@@H](CC(N)=O)C(=O)N1CCC[C@H]1C(=O)N[C@@H](Cc1c[nH]cn1)C(=O)N[C@@H](CCCCN)C(=O)NCC(=O)N1CCC[C@H]1C(=O)N[C@@H](C)C(=O)N[C@H](C(=O)O)[C@@H](C)O` gave an IC50 of 880 nM.

Values taken from ChEMBL document CHEMBL1148524, “Novel and selective alpha(v)beta3 receptor peptide antagonist: design, synthesis, and biological behavior” (J Med Chem, 2006).
